Measured values published in US20260262643A1, “HERBICIDAL BENZOXAZINES” (FMC CORPORATION, priority 2022, published 2026).

How the values were obtained:
foxtail, giant [1] = assay: Test A postemergence; format: in vivo, Setaria faberi; settings: postemergence, 10 days
In short: (§1)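 Weeds and crops in loam–sand blend were sprayed preemergence onto soil or postemergence at 2–10 cm (one- to two-leaf stage). Test chemicals were in a non-phytotoxic solvent with surfactant. After 10 days in the greenhouse, injury was rated visually against untreated controls on a 0 (no effect) to 100 (complete control) scale.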

rice = assay: Test B flooded paddy test; format: in vivo, Oryza sativa; settings: 250 g ai/ha, Flood, 13 days, 0 to 100 scale (0 no effect, 100 complete control)
In short: (§2)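 Two-leaf plants, 3 cm flood, in-water application, 13-day greenhouse hold, visual 0–100 rating vs untreated checks.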

barnyardgrass = assay: Test B flooded paddy test; format: in vivo, Echinochloa crus-galli; settings: 250 g ai/ha, Flood, 13 days, 0 to 100 scale (0 no effect, 100 complete control)
In short: as §2

galium = assay: Test A postemergence; format: in vivo, Galium aparine; settings: postemergence, 10 days
In short: as §1

ryegrass, Italian = assay: Test A postemergence; format: in vivo, Lolium multiflorum; settings: postemergence, 10 days
In short: as §1

corn [2] = assay: Test A postemergence; format: in vivo, Zea mays; settings: postemergence, 10 days
In short: as §1

ragweed = assay: Test A preemergence; format: in vivo, Ambrosia artemisiifolia; settings: 0 to 100 scale
In short: as §1

foxtail, giant [3] = assay: Test A preemergence; format: in vivo, Setaria faberi; settings: 0 to 100 scale
In short: as §1

wheat [4] = assay: Test A postemergence; format: in vivo, Triticum aestivum; settings: postemergence, 10 days
In short: as §1

wheat [5] = assay: Test A preemergence; format: in vivo, Triticum aestivum; settings: 0 to 100 scale
In short: as §1

ducksalad = assay: Test B flooded paddy test; format: in vivo, Heteranthera limosa; settings: 250 g ai/ha, Flood, 13 days, 0 to 100 scale (0 no effect, 100 complete control)
In short: as §2

oat, wild = assay: Test A preemergence; format: in vivo, Avena fatua; settings: 0 to 100 scale
In short: as §1

kochia = assay: Test A postemergence; format: in vivo, Bassia scoparia; settings: postemergence, 10 days
In short: as §1

soybean = assay: Test A postemergence; format: in vivo, Glycine max; settings: postemergence, 10 days
In short: as §1

corn [6] = assay: Test A preemergence; format: in vivo, Zea mays; settings: 0 to 100 scale
In short: as §1

[7] = 125 g ai/ha, 0 to 100 scale, 0 no effect, 100 complete control
[8] = 500 g ai/ha, visual injury after 10 days, 0 is no effect, 100 is complete control
[9] = 500 g ai/ha, visual injury, 0 to 100 scale (0 no effect, 100 complete control)

CC(C)c1ncn(-c2cc(C(=O)N3C[C@H](C)Oc4c(Cl)cccc43)c3ccccc3c2)n1 [Compound 145]
Foxtail, Giant plant response rating (foxtail, giant [1]; [7]): 20
pest or weed control at 500 g/ha (foxtail, giant [1]; Setaria faberi, post-emergence, 240 h, 500 g ai/ha, visual injury, 0 to 100 scale (0 no effect, 100 complete control), read-out: Plant response rating, Foxtail, Giant): 50%
plant injury at 250 g/ha (rice; Oryza sativa, 312 h, read-out: Plant response rating, Rice): 0%
Plant response rating, Barnyardgrass (barnyardgrass): 45
Galium plant response rating (galium; [7]): 60
pest or weed control at 500 g/ha (galium; Galium, post-emergence, 240 h, 500 g ai/ha, visual injury, 0 to 100 scale (0 no effect, 100 complete control), read-out: Plant response rating, Galium): 70%
Ryegrass, Italian plant response rating (ryegrass, Italian; [7]): 30
pest or weed control at 500 g/ha (ryegrass, Italian; Lolium multiflorum, post-emergence, 240 h, 500 g ai/ha, visual injury, 0 to 100 scale (0 no effect, 100 complete control), read-out: Plant response rating, Ryegrass, Italian): 40%
Corn plant response rating (corn [2]; [7]): 10
Corn plant response rating (crop injury, 0 = no effect, 100 = complete kill) at 500 g/ha (corn [2]; Zea mays, post-emergence, 240 h, 500 g ai/ha, visual injury, 0 to 100 scale (0 no effect, 100 complete control)): 20%
Plant response rating, Ragweed (ragweed; 125 g ai/ha): 0
pest or weed control at 500 g/ha (ragweed; Ambrosia artemisiifolia, pre-emergence, 240 h, 500 g ai/ha, visual injury after 10 days, 0 is no effect, 100 is complete control, read-out: Plant response rating, Ragweed): 0%
Plant response rating, Foxtail, Giant (foxtail, giant [3]; 125 g ai/ha): 70
pest or weed control at 500 g/ha (foxtail, giant [3]; Setaria faberi, pre-emergence, 240 h, 500 g ai/ha, visual injury after 10 days, 0 is no effect, 100 is complete control, read-out: Plant response rating, Foxtail, Giant): 80%
Wheat plant response rating (wheat [4]; [7]): 30
plant injury at 500 g/ha (wheat [4]; Triticum aestivum, post-emergence, 240 h, 500 g ai/ha, visual injury, 0 to 100 scale (0 no effect, 100 complete control), read-out: Plant response rating, Wheat): 30%
Plant response rating, Wheat (wheat [5]; 125 g ai/ha): 0
plant injury at 500 g/ha (wheat [5]; Triticum aestivum, pre-emergence, 240 h, 500 g ai/ha, visual injury after 10 days, 0 is no effect, 100 is complete control, read-out: Plant response rating, Wheat): 0%
Plant response rating, Ducksalad (ducksalad): 40
Plant response rating, Oat, Wild (oat, wild; 125 g ai/ha): 0
Plant response rating, Oat, Wild (oat, wild; [8]): 50
Kochia plant response rating (kochia; [7]): 70
pest or weed control at 500 g/ha (kochia; Bassia scoparia, post-emergence, 240 h, 500 g ai/ha, visual injury, 0 to 100 scale (0 no effect, 100 complete control), read-out: Plant response rating, Kochia): 80%
Soybean plant response rating (soybean; [7]): 40
plant injury at 500 g/ha (soybean; Glycine max, post-emergence, 240 h, 500 g ai/ha, visual injury, 0 to 100 scale (0 no effect, 100 complete control), read-out: Plant response rating, Soybean): 100%
Plant response rating, Corn (corn [6]; 125 g ai/ha): 0
Corn plant response rating (crop injury, 0 = no effect, 100 = complete kill) at 500 g/ha (corn [6]; Zea mays, pre-emergence, 240 h, 500 g ai/ha, visual injury after 10 days, 0 is no effect, 100 is complete control): 0%

CC(C)c1ncn(-c2cc(C(=O)N3C[C@H](C)Oc4c(Cl)cccc43)c3ccccc3c2)n1 [Compound 146]
Plant response rating, Foxtail, Giant (foxtail, giant [1]; [9]): 50
pest or weed control at 125 g/ha (foxtail, giant [1]; Setaria faberi, post-emergence, 240 h, 125 g ai/ha, 0 to 100 scale (0 no effect, 100 complete control), read-out: Foxtail, Giant plant response rating): 30%
Plant response rating, Rice (rice): 0
Plant response rating, Barnyardgrass (barnyardgrass): 0
Plant response rating, Galium (galium; [9]): 80
pest or weed control at 125 g/ha (galium; Galium, post-emergence, 240 h, 125 g ai/ha, 0 to 100 scale (0 no effect, 100 complete control), read-out: Galium plant response rating): 50%
Plant response rating, Ryegrass, Italian (ryegrass, Italian; [9]): 40
pest or weed control at 125 g/ha (ryegrass, Italian; Lolium multiflorum, post-emergence, 240 h, 125 g ai/ha, 0 to 100 scale (0 no effect, 100 complete control), read-out: Ryegrass, Italian plant response rating): 20%
Plant response rating, Corn (corn [2]; [9]): 30
plant injury at 125 g/ha (corn [2]; Zea mays, post-emergence, 240 h, 125 g ai/ha, 0 to 100 scale (0 no effect, 100 complete control), read-out: Corn plant response rating): 10%
Plant response rating, Ragweed (ragweed; [8]): 0
pest or weed control at 125 g/ha (ragweed; Ambrosia artemisiifolia, pre-emergence, 240 h, 125 g ai/ha, read-out: Plant response rating, Ragweed): 0%
Plant response rating, Foxtail, Giant (foxtail, giant [3]; [8]): 100
pest or weed control at 125 g/ha (foxtail, giant [3]; Setaria faberi, pre-emergence, 240 h, 125 g ai/ha, read-out: Plant response rating, Foxtail, Giant): 80%
Plant response rating, Wheat (wheat [4]; [9]): 30
plant injury at 125 g/ha (wheat [4]; Triticum aestivum, post-emergence, 240 h, 125 g ai/ha, 0 to 100 scale (0 no effect, 100 complete control), read-out: Wheat plant response rating): 20%
Plant response rating, Wheat (wheat [5]; [8]): 0
plant injury at 125 g/ha (wheat [5]; Triticum aestivum, pre-emergence, 240 h, 125 g ai/ha, read-out: Plant response rating, Wheat): 0%
Plant response rating, Ducksalad (ducksalad): 0
Plant response rating, Oat, Wild (oat, wild; [8]): 20
pest or weed control at 125 g/ha (oat, wild; Avena fatua, pre-emergence, 240 h, 125 g ai/ha, read-out: Plant response rating, Oat, Wild): 0%
Plant response rating, Kochia (kochia; [9]): 90
pest or weed control at 125 g/ha (kochia; Bassia scoparia, post-emergence, 240 h, 125 g ai/ha, 0 to 100 scale (0 no effect, 100 complete control), read-out: Kochia plant response rating): 80%
Plant response rating, Soybean (soybean; [9]): 100
plant injury at 125 g/ha (soybean; Glycine max, post-emergence, 240 h, 125 g ai/ha, 0 to 100 scale (0 no effect, 100 complete control), read-out: Soybean plant response rating): 50%
Plant response rating, Corn (corn [6]; [8]): 0
Corn plant response rating (crop injury, 0 = no effect, 100 = complete kill) at 125 g/ha (corn [6]; Zea mays, pre-emergence, 240 h, 125 g ai/ha): 0%
